Counter-ions that a name gives are not always drawn. Like-named read-outs stand apart in the source and are kept apart here.
Columns and labels:
Assay in all cases: In vitro MIC, Agar Dilution Method
Assay type in all cases: cell-based
Cit. freundii BS-16 = settings: Citrobacter freundii, BS16
Excerpt: (§1) The in vitro activity of the compounds of the present invention as measured by the Minimum Inhibitory Concentration (MIC) in micrograms/ml utilizing the Agar Dilution Method against a variety of Gram-positive and Gram-negative organisms, is as follows: […]

E. coli 257 = settings: Escherichia coli
Excerpt: as §1

E. coli ATCC 25922 = settings: Escherichia coli, ATCC25922
Excerpt: as §1

E. coli TEM-1 = settings: Escherichia coli, TEM1, read-out: In Vitro MIC
Excerpt: as §1

Enter. cloacae 5699 = settings: Enterobacter cloacae
Excerpt: as §1

Enter. cloacae P99 = settings: Enterobacter cloacae
Excerpt: as §1

K. pneumoniae A = settings: Klebsiella pneumoniae, read-out: In Vitro MIC
Excerpt: as §1

Prot. Vulqaris 1028 BC = settings: read-out: In Vitro MIC
Excerpt: as §1

Prot. mirabilis 90 = system: Prot. mirabilis 90
Excerpt: as §1

Prot. vulgaris ATCC 6380 = settings: Proteus vulgaris
Excerpt: as §1

Ps. aeruginosa 18SH = settings: Pseudomonas aeruginosa, read-out: In Vitro MIC
Excerpt: as §1

Ps. aeruginosa 5712 = settings: Pseudomonas aeruginosa
Excerpt: as §1

Ps. aeruginosa 765 = system: Ps. aeruginosa 765
Excerpt: as §1

Ps. aeruginosa 8780 = settings: Pseudomonas aeruginosa
Excerpt: as §1

[1] = system: Ps. aeruginosa ATCC 27853; settings: Pseudomonas aeruginosa
Excerpt: as §1

Ser. marcescens 1071 = settings: Serratia marcescens
Excerpt: as §1

Ser. marcescens SM = settings: Serratia marcescens, read-out: In Vitro MIC
Excerpt: as §1

Staph. aureus 10598 = system: Staph. aureus 10598
Excerpt: as §1

Staph. aureus 67 = settings: Staphylococcus aureus
Excerpt: as §1

Staph. aureus 753 = system: Staph. aureus 753
Excerpt: as §1

Staph. aureus ATCC 29213 = settings: Staphylococcus aureus
Excerpt: as §1

Staph. aureus Smith = settings: Staphylococcus aureus, read-out: In Vitro MIC
Excerpt: as §1

Str. faecalis ATCC 29212 = settings: Enterococcus faecalis, ATCC29212
Excerpt: as §1

Str. pneumoniae 6301 = settings: Streptococcus pneumoniae
Excerpt: as §1

Str. pyogenes 4 = settings: Streptococcus pyogenes
Excerpt: as §1

Compound	MIC (Cit. freundii BS-16) [µg/mL]	MIC (E. coli 257) [µg/mL]	MIC (E. coli ATCC 25922) [µg/mL]	MIC (E. coli TEM-1) [µg/mL]	MIC (Enter. cloacae 5699) [µg/mL]	MIC (Enter. cloacae P99) [µg/mL]	MIC (Ps. aeruginosa 5712) [µg/mL]	MIC (Ps. aeruginosa 8780) [µg/mL]	MIC (Ser. marcescens 1071) [µg/mL]	MIC (Staph. aureus 67) [µg/mL]	MIC (Str. faecalis ATCC 29212) [µg/mL]	MIC (Str. pneumoniae 6301) [µg/mL]	MIC (Str. pyogenes 4) [µg/mL]	further results
CCn1cc(C(=O)O)c(=O)c2cc(F)c(N3CCN(C(=O)OCC4=C(C(=O)O)N5C(=O)[C@@H](NC(=O)/C(=N\OC)c6csc(N)n6)[C@H]5SC4)CC3)cc21 [Compound A, [6R-[6α,7β(Z)]]-7-[[(2-amino-4-thiazolyl) (methoxyimino)acetyl]amino]-3-[[[[4-(3-carboxy-1-ethyl-6-fluoro-1,4-dihydro-4-oxo-7-quinolinyl) -1-piperazinyl]carbonyl]oxy]methyl]-8-oxo-5-thia-1-azabicyclo[4.2.0]oct-2-ene-2-carboxylic acid sodium salt]	0.5	0.25	0.25	0.25	0.5	0.5	16	4	0.5	4	0.5	0.0157	0.0157	MIC (K. pneumoniae A; K. pneumoniae A, Agar Dilution Method): 0.5 µg/mL; MIC (Prot. Vulqaris 1028 BC; Prot. Vulqaris 1028 BC, Agar Dilution Method): 0.125 µg/mL; MIC (Prot. mirabilis 90; Proteus mirabilis, 90, read-out: In Vitro MIC): 0.25 µg/mL; MIC (Prot. vulgaris ATCC 6380; ATCC6380, Prot. vulgaris ATCC 6380, Agar Dilution Method, read-out: In Vitro MIC): 0.0625 µg/mL; MIC (Ps. aeruginosa 18SH; Ps. aeruginosa 18SH, Agar Dilution Method): 4 µg/mL; MIC (Ps. aeruginosa 765; Pseudomonas aeruginosa, Ps. aeruginosa 765, Agar Dilution Method, read-out: In Vitro MIC): 8 µg/mL; MIC ([1]; ATCC27853, Ps. aeruginosa ATCC 27853, Agar Dilution Method, read-out: In Vitro MIC): 8 µg/mL; MIC (Ser. marcescens SM): 0.25 µg/mL; MIC (Staph. aureus 10598; Staphylococcus aureus, Staph. aureus 10598, Agar Dilution Method, read-out: In Vitro MIC): 2 µg/mL; MIC (Staph. aureus 753; Staphylococcus aureus, Staph. aureus 753, Agar Dilution Method, read-out: In Vitro MIC): 4 µg/mL; MIC (Staph. aureus ATCC 29213; ATCC29213, Staph. aureus ATCC 29213, Agar Dilution Method, read-out: In Vitro MIC): 2 µg/mL; MIC (Staph. aureus Smith; Staph. aureus Smith, Agar Dilution Method): 1 µg/mL
CO/N=C(\C(=O)N[C@@H]1C(=O)N2C(C(=O)O)=C(COC(=O)N3CCN(c4cc5c(cc4F)c(=O)c(C(=O)O)cn5C4CC4)CC3)CS[C@H]12)c1csc(N)n1 [Compound B, [6R-[6α,7β(Z)]]-7-[[(2-amino-4-thiazolyl) (methoxyimino)acetyl]amino]-3-[[[[4-(3-carboxy-1-cyclopropyl-6-fluoro-1,4-dihydro-4-oxo-7-quinolinyl)-1-piperazinyl]carbonyl]oxy]methyl]-8-oxo-5-thia-1-azabicyclo[4.2.0]oct-2-ene-2-carboxylic acid sodium salt]	0.125	0.0625	0.0625	0.0625	0.125	0.0313	4	2	0.25	2	0.25	0.0157	0.0157	MIC (K. pneumoniae A): 0.0625 µg/mL; MIC (Prot. Vulqaris 1028 BC): 0.0625 µg/mL; MIC (Prot. mirabilis 90; Proteus mirabilis, Prot. mirabilis 90, Agar Dilution Method, read-out: In Vitro MIC): 0.25 µg/mL; MIC (Prot. vulgaris ATCC 6380; ATCC6380, read-out: In Vitro MIC): 0.0625 µg/mL; MIC (Ps. aeruginosa 18SH; 18SH): 1 µg/mL; MIC (Ps. aeruginosa 765; Pseudomonas aeruginosa, 765, read-out: In Vitro MIC): 1 µg/mL; MIC ([1]; ATCC27853, read-out: In Vitro MIC): 1 µg/mL; MIC (Ser. marcescens SM; Ser. marcescens SM, Agar Dilution Method): 0.125 µg/mL; MIC (Staph. aureus 10598; Staphylococcus aureus, 10598, read-out: In Vitro MIC): 1 µg/mL; MIC (Staph. aureus 753; Staphylococcus aureus, 753, read-out: In Vitro MIC): 1 µg/mL; MIC (Staph. aureus ATCC 29213; ATCC29213, read-out: In Vitro MIC): 1 µg/mL; MIC (Staph. aureus Smith): 0.5 µg/mL

— patent US5336768A, “Antibacterial cephalosporin compounds” (Hoffmann-La Roche Inc., priority 1988, dated 1994)
